Measured values from patent US8314255B2, “Use of phthalimide and/or sulphonamide derivatives in the treatment of diseases which require reducing the TNF- α levels and an exogenous source of nitric oxide, phthalimide derivatives, sulphonamide derivatives, and a method for obtaining a sulphonamide derivative” (priority 2007, dated 2012).

How the values were obtained:
[1] = system: mouse ear edema induced by capsaicin; test: Mouse ear edema assay induced by capsaicin; type: in vivo; conditions: 300 μmol/Kg i.p., capsaicin 250 μg/ear 1 hour after administration
Description: This assay is characterized by an acute inflammatory response of the ear, with development of edema, and it was performed in order to evaluate the anti-inflammatory activity of the synthesized compounds.
In this assay, indomethacin was used as a control at 100 μmol/Kg, and the phthalimide derivatives were firstly evaluated at 300 μmol/Kg via i.p. From table 4, it can be observed that compounds IC and IE show an ear edema inhibition percentage higher than 64%. […] The other compounds, however, show a similar activity when compared to indomethacin (FIG. 01), taking into consideration the standard error.
This assay was performed using Swiss mice from both genders weighing from 18 to 30 grams. The animals were fasted for 8 hours with free access to water. This assay consists in locally administering (right ear) 20 μl of a capsaicin solution (250 μg/ear) diluted in acetone, 1 hour after the i.p. administration (diluted in 0.5% gum arabic). The left ear (control) received the carrier in which capsaicin was diluted (acetone) and the right ear received capsaicin. This assay is characterized by an acute inflammatory response of the ear, with development of edema. The animals were sacrificed and their ears were weighted to obtain the inflammation index. A biopsy (8 mm in diameter) of the ear was carried out. Next, the weights of the inflamed ears were compared against the weights of the contralateral ear (control ear) which were not treated with the phlogistic agent. The edema inhibition percentage was calculated by subtracting the ear treated with the carrier by that treated with capsaicin from each group of animals treated with the test substances, and then it was divided by the difference between the groups of the irritating agents and the control groups.

[2] = system: Salmonella typhimurium TA102; test: AMES test, mutagenic evaluation in Salmonella typhimurium TA102 strain with/without metabolic activation (S9); type: cell-based
Description: The procedure was firstly developed by (MARON, D. M. and AMES, B. N. Mut. Res. v. 113, pp. 173-215, 1983)
For this assay, Salmonella typhimurium TA100 and TA102 strains from the mutagenicity laboratory of the “Faculdade de Ciências Farmacêuticas—UNESP Araraquara” were used. Such strains have the following characteristics: (AMES, 1983)
The positive controls are mutagenic compounds specific for each strain and test condition, with 25 μL/plate of sodium azide (1.25 μg/plate) and 100 μL of mitomycin (0.5 μg/plate) being the controls for TA100 and TA102, respectively, in the absence of metabolic activation. For assays with metabolic activation, the positive control for TA100 is 50 μL 2-antramine (1.25 μg/plate) and for TA102 it is 50 μL 2-aminofluorene (1.25 μg/plate).
The preincubation method was used.
In laminar flow, Salmonella typhimurium (TA100 and TA 102) strains were inoculated individually with a platinum loop, in the respective nutrient broths and maintained at 37° C., under constant stirring (160 rpm) during 14 hours, in order to achieve a density of 1 to 2×10^9 bacteria/mL.
Different concentrations of the compounds were added into 100 μL of 0.2M phosphate buffer pH 7.4 (or 500 μL of the mixture S9 in metabolic activation assays) and incubated for 20-30 minutes at 37° C. Solutions containing the compounds had DMSO as the solvent. Thereafter, 2 mL of top agar supplemented with traces of histidine and biotin was added, homogenized and plated in glycosylated minimum medium. After solidification of the top agar, the plates were incubated for 48 hours at a 37° C. Then, the counting of the number of revertant colonies per plate was performed. All tested concentrations, positive and negative controls were run in triplicate.
After 48 hours, the revertant colonies were counted manually, and the protoCOL Colony Counter Version 3.15.630 (1998-2001) SYNBIOSIS LTD system was used for the positive control.
The final data obtained from the assay was analyzed using the statistical software Salanal (Salmonella Assay Analysis) version 1.0 from the Research Triangle Institute, RTP, North Carolina, USA. Such software allows the dose-response effect to be evaluated by means of analysis of variance (ANOVA-test F) computations between the measurement of the number of revertants at the different tested concentrations (doses) and the negative control, followed by a linear regression. The software model chosen for analyzing the data was Bernstein's (BERNSTEIN, L. et al. Mutat. Res. v. 97, p. 267-281, 1982). The slope of the straight line from the linear portion of the dose-response curve is also provided by this software and corresponds to the number of revertants induced per measurement unit of the analyzed sample.
From the results, the mutagenicity ratio (MR) was computed for each analyzed dose from each compound. MR is given by the following equation:
MR=average number of revertants per test plate (spontaneous+induced revertants) […] average number of revertants per plate of the negative control (spontaneous revertants)
The spontaneous growing means that the number of revertants which developed on the plate, regardless of being induced or not, wherein values higher or equal to 2 are considered as a positive response (VALENT, G. V. et al. Env. Toxicol. Water Quality. v. 8, p. 371-381, 1993).
The mutagenicity test with metabolic activation system was performed with a microsomal fraction S9 (S9 mix) prepared from a liver homogenizate from Sprague Dawley rats, previously treated with Aroclor 1254, acquired in the freeze-dried form.
The procedure for this assay is the same, however, instead of the buffer, 500 μL of the S9 mixture should be added.
The S9 mixture has a viability of 4 hours from preparation when put on ice. The plates are then incubated for 48 hours at 37° C. After the required time has elapsed, the counting of the revertant colonies was carried out. All tested concentrations, positive and negative controls were run in triplicate.

## O=C1c2ccccc2C(=O)N1CO[N+](=O)[O-] [Compound IA, (1,3-dioxo-1,3-dihydro-2H-isoindol-2-yl)methyl nitrate]
[1]
  Average inhibition % (ear edema): 53.75%
[2]; TA102 (+S9)
  concentration above which toxicity is observed (reduction on the number of revertants per plate): higher than 56 nmol
[2]; TA 102, +S9, 7.25 nmol/plate
  mutagenicity ratio (MR): 1.4
  number of revertants per plate: 298 ± 11.3 revertants/plate
[2]; TA 102, +S9, 14.5 nmol/plate
  mutagenicity ratio (MR): 1.5
  number of revertants per plate: 320.8 ± 17 revertants/plate
[2]; TA 102, +S9, 29 nmol/plate
  mutagenicity ratio (MR): 1.8
  number of revertants per plate: 385 ± 21.8 revertants/plate
[2]; TA 102, +S9, 56 nmol/plate
  mutagenicity ratio (MR): 2.34
  number of revertants per plate: 499 ± 8.9 revertants/plate
[2]; TA 102, +S9, 112 nmol/plate
  mutagenicity ratio (MR): 1.64
  number of revertants per plate: 351.2 ± 12 revertants/plate
[2]; TA 102, −S9, 7.25 nmol/plate
  mutagenicity ratio (MR): 1.33
  number of revertants per plate: 263.7 ± 15 revertants/plate
[2]; TA 102, −S9, 14.5 nmol/plate
  mutagenicity ratio (MR): 1.26
  number of revertants per plate: 249.7 ± 12 revertants/plate
[2]; TA 102, −S9, 29 nmol/plate
  mutagenicity ratio (MR): 1.32
  number of revertants per plate: 261.3 ± 20 revertants/plate
[2]; TA 102, −S9, 56 nmol/plate
  mutagenicity ratio (MR): 0.77
  number of revertants per plate: 153 ± 21 revertants/plate
[2]; TA 102, −S9, 112 nmol/plate
  mutagenicity ratio (MR): 0.71
  number of revertants per plate: 141 ± 18 revertants/plate

## O=C1c2ccccc2C(=O)N1c1ccc(CCO[N+](=O)[O-])cc1 [Compound IE, 2-[4-(1,3-dioxo-1,3-dihydro-2H-isoindol-2-yl)phenyl]ethyl nitrate]
[2]; TA 102, +S9, 0.12 μmol/plate
  mutagenicity ratio (MR): 0.9
  number of revertants per plate: 335.3 ± 11 revertants/plate
[2]; TA 102, +S9, 0.25 μmol/plate
  mutagenicity ratio (MR): 0.8
  number of revertants per plate: 295.3 ± 28 revertants/plate
[2]; TA 102, +S9, 0.5 μmol/plate
  mutagenicity ratio (MR): 1.09
  number of revertants per plate: 406 ± 14.1 revertants/plate
[2]; TA 102, +S9, 1 μmol/plate
  mutagenicity ratio (MR): 1.25
  number of revertants per plate: 465 ± 10.6 revertants/plate
[2]; TA 102, +S9, 2 μmol/plate
  mutagenicity ratio (MR): 1.2
  number of revertants per plate: 447 ± 19.8 revertants/plate
[2]; TA 102, −S9, 0.12 μmol/plate
  mutagenicity ratio (MR): 1.29
  number of revertants per plate: 256 ± 6.9 revertants/plate
[2]; TA 102, −S9, 0.25 μmol/plate
  mutagenicity ratio (MR): 1.32
  number of revertants per plate: 262 ± 19.1 revertants/plate
[2]; TA 102, −S9, 0.5 μmol/plate
  mutagenicity ratio (MR): 1.35
  number of revertants per plate: 266.7 ± 18 revertants/plate
[2]; TA 102, −S9, 1 μmol/plate
  mutagenicity ratio (MR): 1.34
  number of revertants per plate: 265.7 ± 10 revertants/plate
[2]; TA 102, −S9, 2 μmol/plate
  mutagenicity ratio (MR): 1.02
  number of revertants per plate: 201 ± 4.7 revertants/plate

## Nc1ccc(S(=O)(=O)NO)cc1 [Compound IIA, 4-amino-N-hydroxybenzenesulphonamide]
[1]
  Average inhibition % (ear edema): 49.24%
[2]; TA 102, +S9, 0.98 μmol/plate
  mutagenicity ratio (MR): 1.03
  number of revertants per plate: 385 ± 33.1 revertants/plate
[2]; TA 102, +S9, 1.96 μmol/plate
  mutagenicity ratio (MR): 0.87
  number of revertants per plate: 323 ± 5.54 revertants/plate
[2]; TA 102, +S9, 3.92 μmol/plate
  mutagenicity ratio (MR): 1.13
  number of revertants per plate: 423.7 ± 22 revertants/plate
[2]; TA 102, +S9, 7.85 μmol/plate
  mutagenicity ratio (MR): 1.03
  number of revertants per plate: 387 ± 14.4 revertants/plate
[2]; TA 102, +S9, 15.7 μmol/plate
  mutagenicity ratio (MR): 0.8
  number of revertants per plate: 300 ± 4.9 revertants/plate
[2]; TA 102, −S9, 0.98 μmol/plate
  mutagenicity ratio (MR): 1.12
  number of revertants per plate: 222 ± 12 revertants/plate
[2]; TA 102, −S9, 1.96 μmol/plate
  mutagenicity ratio (MR): 1.22
  number of revertants per plate: 241 ± 13 revertants/plate
[2]; TA 102, −S9, 3.92 μmol/plate
  mutagenicity ratio (MR): 1.27
  number of revertants per plate: 251 ± 19.2 revertants/plate
[2]; TA 102, −S9, 7.85 μmol/plate
  mutagenicity ratio (MR): 1.17
  number of revertants per plate: 232 ± 13.1 revertants/plate
[2]; TA 102, −S9, 15.7 μmol/plate
  mutagenicity ratio (MR): 1.06
  number of revertants per plate: 210 ± 23 revertants/plate
